Reference: patent US9079902B2, “Heteroaryl sodium channel inhibitors” (AMGEN INC., priority 2011, dated 2015)

Tests used:
[1] = molecular target: Nav 1.5 (Homo sapiens (Human), UniProt Q14524); experiment: Nav 1.5 in vitro assay (IonWorks Quattro population patch-clamp); assay type: cell-based; settings: 293 cells stably transfected with Nav 1.5; 26th pulse to -20 mV, 5 Hz
Protocol: (§1) Nav 1.7 and Nav 1.5 In Vitro Assay
(§2) 293 cells stably transfected with either Nav 1.7 or with Nav 1.5 were recorded in population patch-clamp mode with the IonWorks® Quattro automated electrophysiology system in accordance with the manufacturer's specifications (Molecular Devices, LLC, Sunnyvale, Calif.). Sodium channel currents were measured in response to a train of depolarizations that induced successively greater inactivation.
(§3) Cells were held at −110 mV for three seconds (Nav 1.7) or half a second (Nav 1.5) from a holding voltage of −15 mV, then put through a series of 26 pulses of 150 msec duration to −20 mV at a frequency of 5 Hz. Cells were then left unclamped for a period of 3 to 8 minutes while a single concentration of test compound was added. Cells were then reclamped and put through the same voltage protocol. Current at the end of the 26th pulse to −20 mV was subtracted from the peak current evoked by the 26th pulse to −20 mV to correct for leak current. Percent block was calculated for each concentration in duplicate, and IC50 curves were fitted to percent block as a function of concentration.

[2] = molecular target: Nav 1.7 (Homo sapiens (Human), UniProt Q15858); experiment: Nav 1.7 in vitro assay (IonWorks Quattro population patch-clamp); assay type: cell-based; settings: 293 cells stably transfected with Nav 1.7; for IC50: 26th pulse to -20 mV, 5 Hz
Protocol: as §1, §2, §3

Sequence of Nav 1.7 (Q15858 whole entry): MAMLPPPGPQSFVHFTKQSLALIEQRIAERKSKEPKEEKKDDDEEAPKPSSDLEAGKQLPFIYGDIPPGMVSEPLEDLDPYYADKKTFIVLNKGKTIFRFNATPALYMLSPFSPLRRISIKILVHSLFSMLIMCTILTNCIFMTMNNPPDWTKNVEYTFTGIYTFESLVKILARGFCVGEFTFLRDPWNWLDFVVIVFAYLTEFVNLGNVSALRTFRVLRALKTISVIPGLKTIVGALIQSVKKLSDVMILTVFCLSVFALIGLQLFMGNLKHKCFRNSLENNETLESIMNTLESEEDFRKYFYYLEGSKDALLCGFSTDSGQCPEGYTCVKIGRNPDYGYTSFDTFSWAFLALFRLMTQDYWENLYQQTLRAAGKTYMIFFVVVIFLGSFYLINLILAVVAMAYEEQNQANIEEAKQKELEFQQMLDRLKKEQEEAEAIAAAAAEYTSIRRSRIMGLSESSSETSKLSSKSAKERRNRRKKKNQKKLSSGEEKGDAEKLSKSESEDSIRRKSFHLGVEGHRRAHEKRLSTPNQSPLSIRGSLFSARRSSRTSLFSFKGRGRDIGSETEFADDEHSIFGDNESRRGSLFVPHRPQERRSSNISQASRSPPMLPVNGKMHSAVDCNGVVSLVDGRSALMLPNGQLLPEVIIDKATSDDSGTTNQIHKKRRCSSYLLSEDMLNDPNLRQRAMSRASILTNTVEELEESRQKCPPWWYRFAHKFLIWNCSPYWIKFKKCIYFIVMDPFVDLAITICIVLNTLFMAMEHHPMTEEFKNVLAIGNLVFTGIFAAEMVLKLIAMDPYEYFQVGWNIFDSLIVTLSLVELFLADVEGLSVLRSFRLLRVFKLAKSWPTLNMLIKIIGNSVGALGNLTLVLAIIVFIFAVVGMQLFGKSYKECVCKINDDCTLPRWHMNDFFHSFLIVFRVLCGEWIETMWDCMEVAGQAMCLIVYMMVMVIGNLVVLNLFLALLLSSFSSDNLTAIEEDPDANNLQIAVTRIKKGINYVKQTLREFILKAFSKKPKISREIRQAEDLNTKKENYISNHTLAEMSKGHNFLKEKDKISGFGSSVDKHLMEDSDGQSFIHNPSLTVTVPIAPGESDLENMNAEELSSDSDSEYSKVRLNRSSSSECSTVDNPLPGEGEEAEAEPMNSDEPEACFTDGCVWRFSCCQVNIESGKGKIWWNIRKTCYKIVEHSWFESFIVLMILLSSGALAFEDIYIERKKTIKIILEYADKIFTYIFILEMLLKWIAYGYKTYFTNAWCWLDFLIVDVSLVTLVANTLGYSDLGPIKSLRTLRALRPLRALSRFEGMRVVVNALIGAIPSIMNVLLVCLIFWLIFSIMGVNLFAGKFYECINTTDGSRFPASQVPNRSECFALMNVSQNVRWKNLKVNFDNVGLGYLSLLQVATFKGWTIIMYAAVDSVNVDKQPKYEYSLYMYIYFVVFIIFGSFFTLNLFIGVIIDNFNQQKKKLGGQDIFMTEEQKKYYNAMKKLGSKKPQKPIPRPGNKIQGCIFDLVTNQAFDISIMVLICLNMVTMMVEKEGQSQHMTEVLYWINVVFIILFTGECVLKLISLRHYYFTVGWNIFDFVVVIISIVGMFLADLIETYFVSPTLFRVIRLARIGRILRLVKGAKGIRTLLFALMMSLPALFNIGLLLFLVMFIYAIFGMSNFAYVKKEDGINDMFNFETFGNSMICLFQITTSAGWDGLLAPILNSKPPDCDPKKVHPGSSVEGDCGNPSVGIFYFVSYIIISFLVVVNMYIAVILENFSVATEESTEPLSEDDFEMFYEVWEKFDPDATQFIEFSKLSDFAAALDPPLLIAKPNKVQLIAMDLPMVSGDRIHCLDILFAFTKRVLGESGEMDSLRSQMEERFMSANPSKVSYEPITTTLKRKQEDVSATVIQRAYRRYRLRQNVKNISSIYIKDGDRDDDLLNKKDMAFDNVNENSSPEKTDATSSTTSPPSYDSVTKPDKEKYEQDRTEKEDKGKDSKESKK
Sequence of Nav 1.5 (Q14524 whole entry): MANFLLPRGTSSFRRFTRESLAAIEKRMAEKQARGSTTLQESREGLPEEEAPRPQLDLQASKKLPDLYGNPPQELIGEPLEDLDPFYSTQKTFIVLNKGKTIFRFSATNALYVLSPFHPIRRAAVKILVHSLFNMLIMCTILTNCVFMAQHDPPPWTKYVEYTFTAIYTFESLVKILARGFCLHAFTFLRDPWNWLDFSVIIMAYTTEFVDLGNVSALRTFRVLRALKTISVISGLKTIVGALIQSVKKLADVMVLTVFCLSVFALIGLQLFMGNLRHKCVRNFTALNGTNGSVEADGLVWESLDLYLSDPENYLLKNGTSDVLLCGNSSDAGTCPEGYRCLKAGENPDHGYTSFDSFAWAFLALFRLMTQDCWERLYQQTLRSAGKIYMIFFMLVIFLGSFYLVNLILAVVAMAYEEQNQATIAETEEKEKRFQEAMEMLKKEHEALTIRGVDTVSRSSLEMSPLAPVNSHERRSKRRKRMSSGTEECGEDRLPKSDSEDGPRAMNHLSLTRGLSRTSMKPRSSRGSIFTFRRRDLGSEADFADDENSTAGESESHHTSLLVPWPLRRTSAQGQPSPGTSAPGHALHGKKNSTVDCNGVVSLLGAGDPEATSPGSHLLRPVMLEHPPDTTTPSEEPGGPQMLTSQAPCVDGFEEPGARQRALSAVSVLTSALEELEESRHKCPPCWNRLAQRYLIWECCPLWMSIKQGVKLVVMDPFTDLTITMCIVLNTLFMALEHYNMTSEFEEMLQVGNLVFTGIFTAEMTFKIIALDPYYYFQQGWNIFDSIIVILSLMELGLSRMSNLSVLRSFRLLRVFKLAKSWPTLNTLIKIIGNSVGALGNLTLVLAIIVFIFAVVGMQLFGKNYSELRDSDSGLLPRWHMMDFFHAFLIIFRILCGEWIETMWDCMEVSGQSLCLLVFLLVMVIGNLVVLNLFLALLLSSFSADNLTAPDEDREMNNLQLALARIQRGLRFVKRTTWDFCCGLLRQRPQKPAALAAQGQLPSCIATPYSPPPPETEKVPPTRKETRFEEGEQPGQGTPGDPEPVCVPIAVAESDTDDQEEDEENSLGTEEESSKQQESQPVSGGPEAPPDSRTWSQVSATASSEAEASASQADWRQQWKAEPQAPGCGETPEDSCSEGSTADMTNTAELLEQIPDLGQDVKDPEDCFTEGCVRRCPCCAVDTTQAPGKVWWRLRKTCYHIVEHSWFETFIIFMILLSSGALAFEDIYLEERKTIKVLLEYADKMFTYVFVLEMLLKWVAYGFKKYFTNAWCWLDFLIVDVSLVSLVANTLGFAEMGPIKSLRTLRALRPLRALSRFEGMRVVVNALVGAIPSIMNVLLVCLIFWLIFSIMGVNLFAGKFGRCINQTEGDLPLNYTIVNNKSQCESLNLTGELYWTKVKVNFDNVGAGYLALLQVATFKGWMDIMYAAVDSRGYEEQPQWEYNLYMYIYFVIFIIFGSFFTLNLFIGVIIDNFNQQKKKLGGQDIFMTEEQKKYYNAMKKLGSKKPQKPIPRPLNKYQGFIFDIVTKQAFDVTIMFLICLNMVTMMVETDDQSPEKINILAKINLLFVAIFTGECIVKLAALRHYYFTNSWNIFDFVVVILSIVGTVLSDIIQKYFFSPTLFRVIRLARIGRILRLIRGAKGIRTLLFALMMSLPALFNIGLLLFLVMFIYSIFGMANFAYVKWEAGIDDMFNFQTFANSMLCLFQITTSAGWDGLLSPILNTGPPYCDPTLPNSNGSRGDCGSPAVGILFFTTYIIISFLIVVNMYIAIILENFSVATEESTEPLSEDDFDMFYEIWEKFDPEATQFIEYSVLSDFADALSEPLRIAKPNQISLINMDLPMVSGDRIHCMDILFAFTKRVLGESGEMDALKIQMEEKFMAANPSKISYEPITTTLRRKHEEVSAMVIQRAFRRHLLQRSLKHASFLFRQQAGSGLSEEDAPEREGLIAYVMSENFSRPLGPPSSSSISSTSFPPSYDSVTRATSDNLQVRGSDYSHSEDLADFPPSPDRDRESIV

SMILES | IC50 [1] [µM] | IC50 [2] [µM] | inhibition at 4.9 µM ([2]; HEK293, at 4.9 μM) [%]
Cn1nccc1-c1cc(C(F)(F)F)ccc1-c1cn(C)c2cc(S(=O)(=O)Nc3nccs3)ccc12 [Example 11, 1-Methyl-3-(2-(1-Methyl-1H-Pyrazol-5-yl)-4-(Trifluoromethyl)Phenyl)-N-(Thiazol-2-yl)-1H-Indole-6-Sulfonamide] | > 10 | 3.19 | 
COc1ccc(-c2cn(C)c3cc(S(=O)(=O)Nc4ncns4)ccc23)cc1C(F)(F)F [Example 49, 3-(4-Methoxy-3-(Trifluoromethyl)Phenyl)-1-Methyl-N-(1,2,4-Thiadiazol-5-Yl)-1H-Indole-6-Sulfonamide] | > 10 |  | 
Cn1cc(-c2ccc(C(F)(F)F)cc2C2=CCNCC2)c2ccc(S(=O)(=O)Nc3ncns3)cc21 [Example 22, 1-Methyl-3-(2-(1,2,3,6-Tetrahydropyridin-4-yl)-4-(Trifluoromethyl)Phenyl)-N-(1,2,4-Thiadiazol-5-yl)-1H-Indole-6-Sulfonamide] | > 10 | 0.0425 | 
Cn1cc(-c2ccccc2C(F)(F)F)c2ccc(S(=O)(=O)Nc3ncns3)cc21 [Example 44, 1-Methyl-N-(1,2,4-Thiadiazol-5-yl)-3-(2-(Trifluoromethyl)Phenyl)-1H-Indole-6-Sulfonamide] | > 10 |  | 
Cn1cc(-c2cnn(C3CC3)c2)c2ccc(S(=O)(=O)Nc3ncns3)cc21 [Example 55, 3-(1-Cyclopropyl-1H-Pyrazol-4-Yl)-1-Methyl-N-(1,2,4-Thiadiazol-5-Yl)-1H-Indole-6-Sulfonamide] | > 10 |  | 20.5
Cn1cc(-c2ccc(C(F)(F)F)c(Cl)c2)c2ccc(S(=O)(=O)Nc3ncns3)cc21 [Example 24, 3-(3-Chloro-4-(Trifluoromethyl)Phenyl)-1-Methyl-N-(1,2,4-Thiadiazol-5-yl)-1H-Indole-6-Sulfonamide] | > 10 |  | 
Cn1nccc1-c1cc(Cl)ccc1-n1cnc2cc(S(=O)(=O)Nc3ncns3)ccc21 [Example 62, 1-(4-Chloro-2-(1-Methyl-1H-Pyrazol-5-Yl)Phenyl)-N-(1,2,4-Thiadiazol-5-Yl)-1H-Benzo[D]Imidazole-5-Sulfonamide] | > 10 | 2.68 | 
Cn1cc(-c2ccc(C#N)c(F)c2)c2ccc(S(=O)(=O)Nc3ncns3)cc21 [Example 31, 3-(4-Cyano-3-Fluorophenyl)-1-Methyl-N-(1,2,4-Thiadiazol-5-yl)-1H-Indole-6-Sulfonamide] | > 10 |  | 
Cn1cc(-c2cccc3ccccc23)c2ccc(S(=O)(=O)Nc3ncns3)cc21 [Example 37, 1-Methyl-3-(Naphthalen-1-yl)-N-(1,2,4-Thiadiazol-5-yl)-1H-Indole-6-Sulfonamide] | > 10 |  | 
Cn1nccc1-c1cn(C)c2cc(S(=O)(=O)Nc3ncns3)ccc12 [Example 52, 1-Methyl-3-(1-Methyl-1H-Pyrazol-5-Yl)-N-(1,2,4-Thiadiazol-5-Yl)-1H-Indole-6-Sulfonamide] | > 10 |  | 
Cn1nccc1-c1cc(C(F)(F)F)ccc1-c1cn(S(C)(=O)=O)c2cc(S(=O)(=O)Nc3ncns3)ccc12 [Example 7, 3-(2-(1-Methyl-1H-Pyrazol-5-yl)-4-(Trifluoromethyl)Phenyl)-1-(Methylsulfonyl)-N-(1,2,4-Thiadiazol-5-yl)-1H-Indole-6-Sulfonamide] | > 10 | 0.532 | 
Cn1nccc1-c1cc(C(F)(F)F)ccc1-c1c[nH]c2cc(S(=O)(=O)Nc3ncns3)ccc12 [Example 5, 3-(2-(1-Methyl-1H-Pyrazol-5-yl)-4-(Trifluoromethyl)Phenyl)-N-(1,2,4-Thiadiazol-5-yl)-1H-Indole-6-Sulfonamide] | > 10 | 0.724 | 
Cn1cc(-c2cc(F)ccc2F)c2ccc(S(=O)(=O)Nc3ncns3)cc21 [Example 10, 3-(2,5-Difluorophenyl)-1-Methyl-N-(1,2,4-Thiadiazol-5-yl)-1H-Indole-6-Sulfonamide] | > 10 | 2.13 | 
COc1ccc(-c2cn(C)c3cc(S(=O)(=O)Nc4ncns4)ccc23)c(Cl)c1 [Example 41, 3-(2-Chloro-4-Methoxyphenyl)-1-Methyl-N-(1,2,4-Thiadiazol-5-yl)-1H-Indole-6-Sulfonamide] | > 10 |  | 
Cn1nccc1-c1cc(C(F)(F)F)ccc1-c1cn(C)c2nc(S(=O)(=O)Nc3ncns3)ccc12 [Example 26, 1-Methyl-3-(2-(1-Methyl-1H-Pyrazol-5-yl)-4-(Trifluoromethyl)Phenyl)-N-(1,2,4-Thiadiazol-5-yl)-1H-Pyrrolo [2,3-B]Pyridine-6-Sulfonamide] | > 10 | 1.02 | 
Cn1nccc1-c1cc(C(F)(F)F)ccc1-c1cn(C)c2cc(S(=O)(=O)Nc3nncs3)ccc12 [Example 13, 1-Methyl-3-(2-(1-Methyl-1H-Pyrazol-5-yl)-4-(Trifluoromethyl)Phenyl)-N-(1,3,4-Thiadiazol-2-yl)-1H-Indole-6-Sulfonamide] | > 10 | 1.86 | 
COc1ccc(-c2cn(C)c3cc(S(=O)(=O)Nc4ncns4)ccc23)c(OC)c1 [Example 36, 3-(2,4-Dimethoxyphenyl)-1-Methyl-N-(1,2,4-Thiadiazol-5-yl)-1H-Indole-6-Sulfonamide] | > 10 |  | 

SMILES | IC50 [1] [µM] | IC50 [2] [µM] | inhibition at 4.9 µM ([2]; HEK293, at 4.9 μM) [%]
Cc1cc(C#N)ccc1-c1cn(C)c2cc(S(=O)(=O)Nc3ncns3)ccc12 [Example 46, 3-(4-Cyano-2-Methylphenyl)-1-Methyl-N-(1,2,4-Thiadiazol-5-yl)-1H-Indole-6-Sulfonamide] | > 10 |  | 
COc1cc(F)ccc1-c1cn(C)c2cc(S(=O)(=O)Nc3ncns3)ccc12 [Example 28, 3-(4-FLUORO-2-METHOXYPHENYL)-1-METHYL-N-(1,2,4-Thiadiazol-5-yl)-1H-Indole-6-Sulfonamide] | > 10 |  | 
Cc1noc(C)c1-c1cn(C)c2cc(S(=O)(=O)Nc3ncns3)ccc12 [Example 42, 3-(3,5-Dimethylisoxazol-4-yl)-1-Methyl-N-(1,2,4-Thiadiazol-5-yl)-1H-Indole-6-Sulfonamide] | > 10 |  | 
Cc1cnc(N)c(-c2cn(C)c3cc(S(=O)(=O)Nc4ncns4)ccc23)c1 [Example 45, 3-(2-Amino-5-Methylpyridin-3-yl)-1-Methyl-N-(1,2,4-Thiadiazol-5-yl)-1H-Indole-6-Sulfonamide] | > 10 |  | 
Cn1cc(-c2ccc(F)c(C#N)c2)c2ccc(S(=O)(=O)Nc3ncns3)cc21 [Example 30, 3-(3-Cyano-4-Fluorophenyl)-1-Methyl-N-(1,2,4-Thiadiazol-5-yl)-1H-Indole-6-Sulfonamide] | 7.63 |  | 
Cn1cc(-c2ccc(OC(F)(F)F)cc2)c2ccc(S(=O)(=O)Nc3ncns3)cc21 [Example 32, 1-Methyl-N-(1,2,4-Thiadiazol-5-yl)-3-(4-(Trifluoromethoxy)Phenyl)-1H-Indole-6-Sulfonamide] | > 10 |  | 
Cn1cc(-c2cccc3ncccc23)c2ccc(S(=O)(=O)Nc3ncns3)cc21 [Example 38, 1-Methyl-3-(Quinolin-5-yl)-N-(1,2,4-Thiadiazol-5-yl)-1H-Indole-6-Sulfonamide] | > 10 |  | 
COc1ccc(-c2cn(C)c3cc(S(=O)(=O)Nc4ncns4)ccc23)c2ccccc12 [Example 40, 3-(4-Methoxynaphthalen-1-yl)-1-Methyl-N-(1,2,4-Thiadiazol-5-yl)-1H-Indole-6-Sulfonamide] | > 10 |  | 
COc1cc(OC)cc(-c2cn(C)c3cc(S(=O)(=O)Nc4ncns4)ccc23)c1 [Example 29, 3-(3,5-Dimethoxyphenyl)-1-Methyl-N-(1,2,4-Thiadiazol-5-yl)-1H-Indole-6-Sulfonamide] | > 10 |  | 
Cn1cc(-c2ccc(Br)cc2C(F)(F)F)c2ccc(S(=O)(=O)Nc3ncns3)cc21 [Example 43, 3-(4-Bromo-2-(Trifluoromethyl)Phenyl)-1-Methyl-N-(1,2,4-Thiadiazol-5-yl)-1H-Indole-6-Sulfonamide] | > 10 |  | 
Cn1cc(-c2cccc(C#N)c2)c2ccc(S(=O)(=O)Nc3ncns3)cc21 [Example 34, 3-(3-Cyanophenyl)-1-Methyl-N-(1,2,4-Thiadiazol-5-yl)-1H-Indole-6-Sulfonamide] | > 10 |  | 
CN(C)c1cccc(-c2cn(C)c3cc(S(=O)(=O)Nc4ncns4)ccc23)c1 [Example 47, 3-(3-(Dimethylamino)Phenyl)-1-Methyl-N-(1,2,4-Thiadiazol-5-yl)-1H-Indole-6-Sulfonamide] | > 10 |  | 
Cn1cc(-c2cccc(S(C)(=O)=O)c2)c2ccc(S(=O)(=O)Nc3ncns3)cc21 [Example 39, 1-Methyl-3-(3-(Methylsulfonyl)Phenyl)-N-(1,2,4-Thiadiazol-5-yl)-1H-Indole-6-Sulfonamide] | > 10 |  | 
Cn1cc(-c2cccc(C(F)(F)F)c2)c2ccc(S(=O)(=O)Nc3ncns3)cc21 [Example 48, 1-Methyl-N-(1,2,4-Thiadiazol-5-yl)-3-(3-(Trifluoromethyl)Phenyl)-1H-Indole-6-Sulfonamide] | > 10 |  | 
Cn1cc(-c2cccc(OC(F)(F)F)c2)c2ccc(S(=O)(=O)Nc3ncns3)cc21 [Example 33, 1-Methyl-N-(1,2,4-Thiadiazol-5-yl)-3-(3-(Trifluoromethoxy)Phenyl)-1H-Indole-6-Sulfonamide] | > 10 |  | 
Cn1cc(-c2ccccc2)c2ccc(S(=O)(=O)Nc3ncns3)cc21 [Example 35, 1-Methyl-3-Phenyl-N-(1,2,4-Thiadiazol-5-yl)-1H-Indole-6-Sulfonamide] | > 10 |  | 
